Laboratory results published in US20130137741A1 (ALCON RESEARCH, LTD., priority 2009, published 2013).

Test system: FGFR
Assay: Kinase inhibition, cell-free enzymatic assay
Format: biochemical
Details: 1 mM ATP

Q: For `Cc1ccc(F)c(NC(=O)Nc2ccc(-c3cccc4[nH]nc(N)c34)cc2)c1` [RTK Inhibitor, N-[4-(3-amino-1H-indazol-4-yl)phenyl]-N′-(2-fluoro-5-methylphenyl) urea], which IC50 is on record?
A: > 12.5 µM
